Molecular target: T1, CCR1 (Homo sapiens, UniProt P32246)
T1 construct: host or cells: Non-adherent cells
T1 sequence (P32246 1-355): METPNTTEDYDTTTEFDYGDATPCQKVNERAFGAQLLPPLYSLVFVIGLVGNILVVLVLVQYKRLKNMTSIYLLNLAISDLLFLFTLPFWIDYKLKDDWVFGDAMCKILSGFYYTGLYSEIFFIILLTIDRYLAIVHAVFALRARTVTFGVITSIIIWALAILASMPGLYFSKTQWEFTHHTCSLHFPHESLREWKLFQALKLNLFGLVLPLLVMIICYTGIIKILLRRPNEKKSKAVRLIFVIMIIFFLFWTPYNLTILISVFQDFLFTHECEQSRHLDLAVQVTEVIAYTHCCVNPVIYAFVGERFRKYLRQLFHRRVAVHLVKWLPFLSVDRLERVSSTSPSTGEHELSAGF
Assay: Calcium flux in CCR1 transfected cells, Method A (Fluo-4 NW dye, FLIPR TETRA), MIP-1 alpha at EC80
Format: cell-based
Settings: cells stably expressing recombinant CCR1 and G-alpha-16, 1 hour at room temperature
Protocol: Compounds are assessed for the ability to block the interaction of CCR1 and MIP-1α in a functional cellular assay measuring calcium flux in CCR1 transfected cells.
Method A: Non-adherent cells purchased from Chemicon Corporation (HTS005C), stably expressing recombinant CCR1 and G-alpha-16 are grown in RPMI 1640 medium (Mediatech 10-080-CM) supplemented with 10% heat-inactivated FBS, 0.4 mg/mL Geneticin and penicillin/streptomycin. On the day of the assay, the cells are transferred to a beaker and dye-loaded in bulk using a Fluo-4 NW Calcium Assay Kit with probenecid (Invitrogen F36205) at 0.8E6 cells/mL for 1 hour at room temperature. After 1 hour, they are seeded in a 384-well tissue culture-treated plate at a density of 20,000 cells/well. Appropriately diluted test compound is added to the well to achieve a top concentration of 3,000 nM (diluted 4-fold with 10 doses total). The final concentration of DMSO is 1%. The buffer is HBSS (Invitrogen 14025) with 20 mM HEPES at pH 7.4. The cells are allowed to incubate 1 hour in the dark at room temperature. The plates are transferred to the FLIPR TETRA where MIP-1 alpha in 1% BSA is added at the EC80 final concentration. Wells+/−MIP-1 alpha containing diluted DMSO instead of compound serve as the controls. Intracellular calcium flux is recorded on the FLIPR TETRA, using excitation at 470/495 nm and emission at 515/575 nm. Data are analyzed using Activity Base software.

Structure (SMILES)	IC50 [nM]
CS(=O)(=O)c1cc(CNC(=O)c2cccn3c(-c4ccc(F)cc4)ncc23)ccn1 [3-(4-Fluorophenyl)-imidazo[1,5-a]pyridine-8-carboxylic acid (2-methanesulfonyl-pyridin-4-ylmethyl)-amide]	285
CCCC(NC(=O)c1cccn2c(-c3ccc(F)cc3)ncc12)c1ccc(S(C)(=O)=O)nc1 (centres unmarked) [3-(4-Fluorophenyl)-imidazo[1,5-a]pyridine-8-carboxylic acid [1-(6-methanesulfonyl-pyridin-3-yl)-butyl]-amide]	7
O=C(NCc1cccc(C(F)(F)F)c1)c1cccn2c(-c3ccc(Cl)c(Cl)c3)ncc12 [3-(3,4-Dichlorophenyl)-imidazo[1,5-a]pyridine-8-carboxylic acid 3-trifluoromethyl-benzylamide]	810
CS(=O)(=O)c1ccc(CNC(=O)c2cccn3c(-c4ccc(F)cc4)ncc23)cn1 [3-(4-Fluorophenyl)-imidazo[1,5-a]pyridine-8-carboxylic acid (6-methanesulfonyl-pyridin-3-ylmethyl)-amide]	568
O=C(NCc1cccc(C(F)(F)F)c1)c1cccn2c(-c3ccc(F)cc3)ncc12 [3-(4-Fluorophenyl)-imidazo[1,5-a]pyridine-8-carboxylic acid 3-trifluoromethyl-benzylamide]	18
O=C(NCc1ccnc(Br)c1)c1cccn2c(-c3ccc(F)cc3)ncc12 [3-(4-Fluorophenyl)-imidazo[1,5-a]pyridine-8-carboxylic acid (2-bromopyridin-4-ylmethyl)-amide]	11
CS(=O)(=O)c1cccc(CNC(=O)c2cccn3c(-c4ccc(F)cc4)ncc23)c1 [3-(4-Fluorophenyl)-imidazo[1,5-a]pyridine-8-carboxylic acid 3-methanesulfonyl-benzylamide]	305
O=C(NCc1ccc(Br)nc1)c1cccn2c(-c3ccc(F)cc3)ncc12 [3-(4-Fluorophenyl)-imidazo[1,5-a]pyridine-8-carboxylic acid (6-bromopyridin-3-ylmethyl)-amide]	428
